What was measured:
[1] = test system: COLON ADENOCARCINOMA-26/A; format: in vivo, murine; conditions: IV 10 mg/kg/inj QD 1-7, 9; total dose 80 mg/kg; Balb/C female mice
Excerpt: (§1) Inhibition of tumors transplanted into mice is an accepted procedure for studying the efficacy of antitumor agents (Corbett, et al., In vivo Methods for Screening and Preclinical Testing; Use of rodent solid tumors for drug discovery., In: Anticancer Drug Development Guide: Preclinical Screening, Clinical Trials, and Approval, B. Teicher (ed), Humana Press Inc., Totowa, N.J., Chapter 5, pages 75-99 (1997); (Corbett, et al., Int. J. Pharmacog., 33, Supplement, 102-122 (1995)). Murine tumors or human xenographs were implanted essentially as described by Corbett in In vivo Methods for Screening and Preclinical Testing; Use of rodent solid tumors for drug discovery. Briefly, the murine tumor or human xenograph was implanted subcutaneously using either 12-gauge trocar implants or counted number of cells. The location for the trocar insertion is midway between the axillary and inguinal region along the side of the mouse. The trocar is slipped approximately ¾ of an inch subcutaneously up toward the axilla before discharging the tumor fragment, and pinching the skin as the trocar is removed. Alternatively, human tumor cells prepared from a […] of donor tumors (5×10^6 cells) were implanted subcutaneously in a hind-leg of a male or female nude mouse (Charles River). Either a test compound in vehicle or vehicle alone was administered by intravenous bolus injection (iv), intraperitoneal injection (ip), or oral gavage (po). Each treatment group, as well as a group of untreated control animals, consisted of five animals per group in each experiment. Subcutaneous tumor response was monitored by tumor volume measurement performed twice each week over the course of the experiment (60-120 days). Body weights were taken as a general measure of toxicity. The subcutaneous tumor data were analyzed by determining the median tumor weight for each treatment group over the course of the experiment and calculating the tumor growth delay as the difference in days for the treatment versus the control tumors to reach a volume of either 500 or 1000 mm^3.
(§2) Cryptophycin-309 (309) was tested against a variety of murine and human tumors substantially as described supra. Cryptophycin-55 glycinate (55-GLY), Taxol, and Adriamycin (Adria) were also included in certain tests for purposes of comparison. Cryptophycin 55 glycinate is known in the art (WO 98/08505, Example 9) and has the following structure: [drawing 9]
(§3) Tumor Weight(mg)=(a×b^2)/2 where a=tumor length (mm) and b=tumor width (mm).
(§4) Tumor Growth Delay=T−C where T is the median time (days) required for the treatment group tumors to reach a predetermined size, and C is the median time (days) for the control group tumors to reach the same size. Tumor-free survivors are excluded from this calculation, and are tabulated separately (Tumor Free).
(§5) Log Kill=Tumor Growth Delay/(3.32)(Td)
(§6) where Tumor Growth Delay is as previously defined and Td is tumor volume doubling time (days), estimated from the best fit straight line from a log-linear growth plot of the control group of tumors in exponential growth (100-800 mg range)
(§7) %T/C mass—The treatment and control groups are measured when the control group tumors reach approximately 700 to 1200 mg in size (median group). The median tumor weight of each group is determined (including zeros). The T/C value in percent is an indication of antitumor effectiveness. A T/C≦42% is considered significant antitumor activity. A T/C<10% is considered to indicate highly significant antitumor activity.
(§8) Body Weight Loss Nadir—A body weight loss nadir (mean of group) of greater than 20% or drug deaths greater than 20% are considered to indicate an excessively toxic dosage in single course trials.
(§9) Activity Rating—the Activity Rating is derived from the Log Kill according to the following table: […]

[2] = test system: MAMMARY ADENOCARCINOMA 16/C; format: in vivo, murine; conditions: IV 8 mg/kg/inj QD 3-11; total dose 72 mg/kg; C3H/HeN female mice
Excerpt: as §1, §2, §3, §4, §5, §6, §7, §8, §9

[3] = test system: PANCREATIC DUCTAL ADENOCARCINOMA #02; format: in vivo, murine; conditions: IV 8 mg/kg/inj QD 1-8; total dose 64 mg/kg; BDF1 female mice; experiment #
Excerpt: as §1, §2, §3, §4, §5, §6, §7, §8, §9

[4] = test system: MAMMARY ADENOCARCINOMA-16/C/Adr; experiment: Early stage murine mammary adenocarcinoma-16/C/Adr subcutaneous tumor assay; format: in vivo; conditions: IV 10 mg/kg/inj QD 1-7; total dose 70 mg/kg; C3H female mice
Excerpt: as §1, §2, §3, §4, §5, §6, §7, §8, §9

[5] = test system: COLON ADENOCARCINOMA 51/A; experiment: Early stage murine colon adenocarcinoma 51/A subcutaneous tumor assay; format: in vivo; conditions: IV 10 mg/kg/inj QD 1-8; total dose 80 mg/kg; CDF female mice
Excerpt: as §1, §2, §3, §4, §5, §6, §7, §8, §9

[6] = test system: HUMAN COLON ADENOCARCINOMA 15; format: in vivo; conditions: IV 9.5 mg/kg/inj QD 3-11; total dose 85.5 mg/kg; Balb/C SCID female mice
Excerpt: as §1, §2, §3, §4, §5, §6, §7, §8, §9

[7] = test system: HUMAN COLON ADEN[…]-116; experiment: Early stage human colon adenocarcinoma HCT-116 xenograft assay; format: in vivo; conditions: IV 9 mg/kg/inj QD 3-10; total dose 72 mg/kg; Balb/C SCID female mice
Excerpt: as §1, §2, §3, §4, §5, §6, §7, §8, §9

CC(=O)O[C@H]1C(=O)[C@@]2(C)[C@H]([C@H](OC(=O)c3ccccc3)[C@]3(O)C[C@H](OC(=O)[C@H](O)[C@@H](NC(=O)c4ccccc4)c4ccccc4)C(C)=C1C3(C)C)[C@]1(OC(C)=O)CO[C@@H]1C[C@@H]2O [Taxol]
% T/C MASS [1]: 57%
DRUG DEATHS [1]: 0/5
LOG KILL [1]: None
MEDIAN TUMOR WEIGHT [1]: 516 mg
% T/C MASS [2]: 0%
ACTIVITY RATING [2]: ++++ (>2.8)
DRUG DEATHS [2]: 0/5
GROWTH DELAY [2]: 12.5 days
LOG KILL [2]: 2.9
MEDIAN TUMOR WEIGHT [2]: 0 mg
% T/C MASS [3]: 79%
DRUG DEATHS [3]: 0/5
GROWTH DELAY [3]: 1 days
LOG KILL [3]: 0.1
MEDIAN TUMOR WEIGHT [3]: 1296 mg
DRUG DEATHS [4]: 0/5
LOG KILL [4]: None
MEDIAN TUMOR WEIGHT [4]: 1198 mg
% T/C MASS [5]: 25%
ACTIVITY RATING [5]: + (0.7-1.2)
DRUG DEATHS [5]: 0/6
GROWTH DELAY [5]: 5.6 days
LOG KILL [5]: 0.7
MEDIAN TUMOR WEIGHT [5]: 288 mg
% T/C MASS [6]: 67%
DRUG DEATHS [6]: 0/5
GROWTH DELAY [6]: 3.5 days
LOG KILL [6]: 0.4
MEDIAN TUMOR WEIGHT [6]: 1044 mg
% T/C MASS [7]: 11%
ACTIVITY RATING [7]: +++ (2.0-2.8)
DRUG DEATHS [7]: 0/5
GROWTH DELAY [7]: 17 days
LOG KILL [7]: 2.0
MEDIAN TUMOR WEIGHT [7]: 126 mg

Reference: patent publication US6747021B2, “Cryptophycin compound” (Eli Lilly and Company, priority 2000, dated 2004)
